{"source": "patent US11390592B2", "about": "“Method for producing the crystalline form of modification a of calcobutrol” (BAYER PHARMA AKTIENGESELLSCHAFT, priority 2016, dated 2022)", "assay_type_in_all_cases": "physicochemical", "key": {"[1]": {"experiment": "Solubility in water of the polymorphic modifications"}, "[2]": {"experiment": "Hygroscopic properties: exposure to ambient air, water content by Karl-Fischer titration", "conditions": "ca. 20° C., ca. 60% rel. humidity", "procedure": "The hygroscopic properties of three different samples of Calcobutrol were determined, one sample was prepared by the method described in Inorganic Chemistry 1997, 36, 6086-6093 (Example 5), one sample was prepared by the method described in WO2011/054827A1 (Example 6), and one sample was prepared by the method according to the present invention (Example 2).\n2 g of each sample were exposed to ambient air (ca. 20° C., ca. 60% rel. humidity). The water content was measured by means of Karl-Fischer-Titration immediately after initial exposure (t=0), three hours (t=3 h), seven hours (t=7 h), and thirty one hours (t=31 h) after initial exposure."}, "[3]": {"experiment": "Storage stability and hygroscopicity of the polymorphic forms", "conditions": "solid"}}, "data": [{"smiles": "O=C([O-])CN1CCN(CC(=O)[O-])CCN(C(CO)C(O)CO)CCN(CC(=O)O)CC1.[Ca+2]", "note": "(stereo not drawn) [Modification A, calcium complex of dihydroxy-hydroxy-methylpropyl-tetraazacyclododecane-triacetic acid (calcobutrol)]", "values": [{"measurement": "Solubility in water", "setting": "[1]", "value": ">500", "unit": "g/L"}, {"measurement": "solubility in water (appearance)", "setting": "[1]", "value": "colourlessly soluble in water"}, {"measurement": "weight-% water t = 0", "setting": "[2]; 2 g exposed to ambient air, immediately after initial exposure", "value": 3.0, "unit": "%"}, {"measurement": "weight-% water t = 7 h", "setting": "[2]; ambient air, seven hours after initial exposure", "value": 4.3, "unit": "%"}, {"measurement": "weight-% water t = 31 h", "setting": "[2]; ambient air, thirty one hours after initial exposure", "value": 4.3, "unit": "%"}, {"measurement": "weight-% water t = 3 h", "setting": "[2]; ambient air, three hours after initial exposure", "value": 4.5, "unit": "%"}, {"measurement": "storage stability", "setting": "[3]", "value": "good storage stability"}, {"measurement": "storage stability", "setting": "[3]; listed as calcobutrol of modification A", "value": "storage-stable"}]}, {"smiles": "O=C([O-])CN1CCN(CC(=O)[O-])CCN(C(CO)C(O)CO)CCN(CC(=O)O)CC1.[Ca+2]", "note": "(stereo not drawn) [Modification B, calcium complex of dihydroxy-hydroxy-methylpropyl-tetraazacyclododecane-triacetic acid (calcobutrol)]", "values": [{"measurement": "hygroscopicity", "setting": "[3]", "value": "to a large extent tend to be hygroscopic"}]}]}
